Test results as given in PubChem BioAssay (NCI).
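Values below derive from 48-hour exposures of cells grown in 96-well plates, with endpoints linearly interpolated between the two concentrations bracketing the appropriate inhibition level. TGI denotes the concentration required for complete inhibition of growth.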

Key:
Test in all cases: NCI tumour cell line growth inhibition, 48 h
[1] = test system: SK-MEL-28 melanoma
[2] = test system: K-562 leukemia
[3] = test system: KM12 colon
[4] = test system: SF-268 CNS
[5] = test system: CCRF-CEM leukemia
[6] = test system: SK-MEL-5 melanoma
[7] = test system: BT-549 breast
[8] = test system: TK-10 renal
[9] = test system: HL-60(TB) leukemia
[10] = test system: HOP-62 NSCLC
[11] = test system: UACC-257 melanoma
[12] = test system: UO-31 renal
[13] = test system: HCT-116 colon
[14] = test system: COLO 205 colon
[15] = test system: T-47D breast
[16] = test system: RPMI-8226 leukemia
[17] = test system: ACHN renal

| Compound | TGI [1] | TGI [2] | TGI [3] | TGI [4] | TGI [5] | TGI [6] | TGI [7] | TGI [8] | TGI [9] | TGI [10] | TGI [11] | TGI [12] | TGI [13] | TGI [14] | TGI [15] | TGI [16] | TGI [17] |
| --- | --- | --- | --- | --- | --- | --- | --- | --- | --- | --- | --- | --- | --- | --- | --- | --- | --- |
| CCCCC1(N=[N+]=[N-])C(=O)C2C=CC=C3c4ccccc4N(C1=O)C32 (stereo not given) | > 100 µM | > 31.6 µM | > 31.6 µM | > 31.6 µM | > 31.6 µM | > 31.6 µM | > 31.6 µM | > 31.6 µM | > 100 µM | > 31.6 µM | 30.9 µM | > 31.6 µM | > 31.6 µM | > 31.6 µM | > 31.6 µM | > 31.6 µM | > 31.6 µM |
| Clc1cc(OCC23CC4CC(CC(C4)C2)C3)nc(OCC23CC4CC(CC(C4)C2)C3)n1 | > 100 µM | > 100 µM | > 100 µM | > 100 µM | > 100 µM | > 100 µM | > 100 µM | > 100 µM | > 100 µM | > 100 µM | > 100 µM | > 100 µM | > 100 µM | > 100 µM | > 100 µM | > 100 µM | > 100 µM |
| c1ccc(CCN2CCN=C2Cc2ccccc2)cc1 | > 100 µM | > 100 µM | > 100 µM | > 100 µM | > 100 µM | > 100 µM | > 100 µM | > 100 µM | > 100 µM | > 100 µM | > 100 µM | > 100 µM | > 100 µM | > 100 µM | > 100 µM | > 100 µM | > 100 µM |
| COC(=O)C(Cc1ccccc1)NC(=O)c1ccc(CNC(=S)NCc2cccc(CNC(=S)NCc3ccccc3)c2)cc1 (stereo not given) | > 62.5 µM | > 62.5 µM | > 62.5 µM | > 62.5 µM | > 62.5 µM | > 62.5 µM | > 62.5 µM | > 62.5 µM | > 62.5 µM | > 62.5 µM | > 62.5 µM | > 62.5 µM | > 62.5 µM | > 62.5 µM | > 62.5 µM | > 62.5 µM | > 62.5 µM |
| CCOC(=O)Cn1nnc2cc(Nc3nc4ccccc4nc3C(=O)OCC)ccc21 | > 100 µM | > 100 µM | > 100 µM | > 100 µM | > 100 µM | > 100 µM | > 100 µM | 59 µM | > 100 µM | 79.6 µM | > 100 µM | 19.4 µM | > 100 µM | > 100 µM | > 100 µM | > 100 µM | > 100 µM |
| COP(=O)(OC)c1ccc(NCc2cc(O)ccc2O)cc1 | > 70.2 µM | > 96.8 µM | 38.4 µM | 43.6 µM | > 95.3 µM | 47.2 µM | 36.9 µM | 53.9 µM | > 92.2 µM | > 84.7 µM | > 56.1 µM | 29.3 µM | > 59.7 µM | > 64.6 µM | 70.1 µM | 62.4 µM | 32.2 µM |
| CCCCCC(O)(CCCCC)CCCCCCCCC1=C(O)c2ccccc2C(=O)C1=O | > 46.2 µM | 21.6 µM | 19.4 µM | 33.7 µM | > 100 µM | 14.5 µM | 39.6 µM | > 75.5 µM | 14 µM | 25.6 µM | > 66.5 µM | 28 µM | 15.2 µM | 42.4 µM | 75.2 µM | 11.5 µM | > 100 µM |
| N#CCOc1cccc(C2(N3CC=CCC3)CCCCC2)c1 | > 100 µM | > 100 µM | > 100 µM | > 100 µM | > 100 µM | > 100 µM | > 100 µM | > 100 µM | > 100 µM | > 100 µM | > 100 µM | > 100 µM | > 100 µM | > 100 µM | > 100 µM | > 100 µM | > 100 µM |
| COc1ccc(N2C(N)=C(C#N)C(C#N)(C#N)C2c2cccc([N+](=O)[O-])c2)cc1 (stereo not given) | 23.6 µM | 14.7 µM | 33.9 µM | 44 µM | > 24.6 µM | 27.4 µM | 32.3 µM | 30.9 µM | > 25.7 µM | 30.9 µM | 27.6 µM | 31.3 µM | 23.8 µM | 24 µM | 28 µM | 42.5 µM | 27.4 µM |
| COc1ccc2oc(=Nc3ccc(F)cc3)c(C(N)=O)cc2c1 | > 100 µM | > 100 µM | > 100 µM | > 100 µM | > 100 µM | > 100 µM | > 100 µM | 58 µM | > 100 µM | > 100 µM | > 100 µM | > 100 µM | > 100 µM | > 100 µM | 94.8 µM | > 100 µM | > 100 µM |
